The values below come from PubChem BioAssay (NCI).

Structures are written as SMILES. “And” between values parts separate entries of the source, which are not always exact repeats. Identical values can stand only once.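 A five-concentration, 48-hour dose response in 96-well plates underlies each endpoint, interpolated linearly between surrounding concentrations. The concentration for 50% growth inhibition is given as GI50. TGI marks complete inhibition of growth.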 Where only a bound is given, the exact number is not on record here.

Experiment in all cases: DTP human tumour cell line panel, 48 h
For test [1], the system named is HCC-2998 colon.
Test [2] relates to HT29 colon.
Test [3] relates to NCI-H23 lung.
The test system of test [4] is OVCAR-3 ovarian.
Test [5] has as its system OVCAR-5 ovarian.
Test [6] relates to SK-MEL-28 melanoma.
The test system of test [7] is SW-620 colon.
The test system of test [8] is U251 CNS.
For test [9], the system named is UACC-62 melanoma.
In test [10] the test system is NCI/ADR-RES ovarian.
Test [11] deals with TK-10 renal.

For the molecule `Cc1ccc(NC(=O)CC/C(CC(=O)C(C)(C)C)=N/NC(=O)c2cc3ccccc3cc2O)cc1C`, the TGI in test [1] was 55 µM; in test [2], greater than 100 µM; in [3], 47.6 µM; in test [4] it was greater than 100 µM; in test [5], greater than 100 µM; in test [6] it was greater than 100 µM. The TGI in test [7] was greater than 100 µM; in test [8] it was greater than 100 µM; in test [9], 66 µM.

For the molecule `CC1(C)N=C(/C(Cl)=[N+](/[O-])C(=O)c2ccc(Cl)cc2)C(C)(C)N1O`, the TGI turned out to be 63 µM in test [1]; 43 µM in [2]; 48.6 µM in test [3]; 63.8 µM in test [10]; 32.4 µM in test [4]; 42.5 µM in test [5]. Further, the TGI in test [6] was 37.3 µM; in test [7], 44.9 µM; in test [11] it was 38.8 µM; in test [8], 55.5 µM.

Regarding `COC(=O)C(Cc1ccccc1)NC(=O)C(CNC(=O)OCc1ccccc1)C(=O)OCc1ccccc1` (configuration not stated), the TGI in [1], in test [2], in test [3], in [10], in [4] and in test [5] was greater than 100 µM throughout. Further, the TGI in [6] is > 100 µM and 41.7 µM; in test [8], greater than 100 µM; in [9], > 100 µM and 85.8 µM. Moreover, the GI50 in [6] was > 100 µM and 20.8 µM; in test [9] it was 52.2 µM and 22.1 µM.

On to `COc1cc(C=O)cc(C=Nc2ccc(Br)cc2)c1O`, for which the TGI in test [1] was 38.9 µM; in test [2], greater than 100 µM; in [3], greater than 100 µM; in test [10], greater than 100 µM; in [4], greater than 100 µM; in test [5], greater than 100 µM. Besides, the TGI in test [6] was greater than 100 µM; in test [7], greater than 100 µM; in [11] it was greater than 100 µM; in [8] it was greater than 100 µM; in test [9] it was 50.1 µM.

For `CC1CC(c2ccccc2)=Nc2ccccc2S1` (configuration not stated), the TGI in [1], in [2], in test [3], in [5], in [6] and in test [7] was greater than 100 µM in each case. Further, the TGI in [11], in [8] and in test [9] was greater than 100 µM in each case.

Consider `O=C(N/N=C/c1ccccc1)c1c(F)c(F)c(F)c(F)c1F`, for which the TGI in [1], in [2], in test [3], in test [10], in test [4] and in test [5] was greater than 100 µM in each case. Besides, the TGI in [6], in [7], in test [11], in test [8] and in [9] was greater than 100 µM each time.

Consider `CCC12CCC[C@@]13C=C[C@H](O3)C(C)(C)C2=O` (some centres not stated), for which the TGI in test [1], in test [2], in test [3], in test [4], in [5] and in [7] was greater than 100 µM in each case. The TGI in test [11], in [8] and in [9] was greater than 100 µM in each case.

For the molecule `[C-]#[O+].[Cl][Sn]([Cl])[Cl].[Cl][Sn]([Cl])[Cl].[Pt].c1cnc2c(c1)ccc1cccnc12`, the TGI in test [1] was 13.1 µM; in test [2] it was greater than 100 µM; in test [3], greater than 100 µM; in test [10], 10.1 µM; in test [4] it was greater than 69.8 µM; in [5] it was greater than 59.5 µM. In addition, the TGI is 46.9 µM in test [6], greater than 100 µM in test [7], 15 µM in test [8] and greater than 22.4 µM in test [9].

For the molecule `O=C1c2ccccc2-c2c1c1ccccc1c(=O)n2CCCNCCNCCCn1c2c(c3ccccc3c1=O)C(=O)c1ccccc1-2`, the GI50 was less than 0.01 µM in test [2]; 0.508 µM in test [3]; 0.358 µM in test [10]; 1.29 µM in test [5]; 1.09 µM in [6]; less than 0.01 µM in [7]. Further, the GI50 is 0.279 µM in test [11], 0.118 µM in test [8] and 0.174 µM in test [9]. Moreover, the TGI in test [3] is 2.57 µM; in test [10] it was 1.75 µM; in test [5], 2.93 µM; in test [6], greater than 100 µM; in [7], 0.258 µM; in [11] it was 2.08 µM. Also, the values for the TGI in test [8] and in [9] were 2.33 µM and 1.88 µM, respectively.
